System: PBMC (polyclonal gluten-specific T cells) of paediatric and adult CD patients
Test: IFN-γ ELISpot of PBMC after 3 day oral wheat challenge (SFU, % of maximal peptide response, dominance scores, EC50; Examples 5-6)
Assay type: cell-based, human
Conditions: for IFN-γ ELISpot response: after oral wheat challenge; for Cross-reactive T cell response: following wheat challenge
[1] = subject I (3-5yrs/6-10yrs part)
[2] = subject J (3-5yrs/6-10yrs part)
[3] = subject K (3-5yrs/6-10yrs part)
[4] = subject V (3-5yrs/6-10yrs part)
[5] = subject W (3-5yrs/6-10yrs part)
[6] = subject Y (3-5yrs/6-10yrs part)
[7] = subject five (3-5yrs/6-10yrs part)
[8] = subject seven (3-5yrs/6-10yrs part)
[9] = subject six (3-5yrs/6-10yrs part)
[10] = subject ten (3-5yrs/6-10yrs part)
[11] = subject two (3-5yrs/6-10yrs part)

For QPFPQPQQPFSQQ, the “IFN-γ ELISpot response” value (patient A, 11-17 yrs, cut-off 10 SFU) was 9 SFU, the “IFN-γ ELISpot response” value (patient E, H, 11-17 yrs, cut-off 10 SFU) was 16 SFU and the “Significant response as percentage of maximal peptide SFU” value (“Significant response as percentage” below) (patient E, max peptide 224 SFU) was “(6-10% = ^)”. The “IFN-γ ELISpot response” value (patient F, 11-17 yrs, cut-off 10 SFU) was 12 SFU, the “Significant response as percentage” value (patient F, max peptide 178 SFU) was “(6-10% = ^)” and the “IFN-γ ELISpot response” value (patient G, 11-17 yrs, cut-off 10 SFU) was 1 SFU. The “IFN-γ ELISpot response” value (patient H (HLA-DQ2.5 homozygote), 3-5yrs, cut-off 10 SFU) was 13 SFU, the “IFN-γ ELISpot response” value (patient H, 11-17 yrs, cut-off 10 SFU) was 2 SFU and the “IFN-γ ELISpot response” value (patient ID not given, 11-17 yrs, cut-off 10 SFU) was 30 SFU. For the same sequence, the “Significant response as percentage” value (patient ID not given, max peptide 95 SFU) was “′′ (21-40% = ′′)”, the “Significant response as percentage” value (patient II, max peptide 15 SFU) was “+ (>70% = +)” and the “Significant response as percentage” value (patient J, max peptide 196 SFU) was “(6-10% = ^)”. The “Significant response as percentage” value (patient K, max peptide 53 SFU) was “′′ (21-40% = ′′)”, the “Significant response as percentage” value (patient M, max peptide 48 SFU) was “′′ (21-40% = ′′)” and the “IFN-γ ELISpot response” value (patient N, 3-5yrs, cut-off 10 SFU) was 3 SFU. The “IFN-γ ELISpot response” value (patient P, 11-17 yrs, cut-off 21.6 SFU) was 10 SFU, the “IFN-γ ELISpot response” value (patient Q, 11-17 yrs, cut-off 10 SFU) was 28 SFU and the “Significant response as percentage” value (patient Q, max peptide 97 SFU) was “′′ (21-40% = ′′)”. For the same sequence, the “IFN-γ ELISpot response” value (patient U, H, 11-17 yrs, cut-off 10 SFU) was 22 SFU, the “Significant response as percentage” value (patient U, max peptide 81 SFU) was “′′ (21-40% = ′′)” and the “IFN-γ ELISpot response” value (patient V, 6-10 yrs, cut-off 10 SFU) was 5 SFU. For the same sequence, the “IFN-γ ELISpot response” value (patient Y, 6-10 yrs, cut-off 10 SFU) was 6 SFU, the “IFN-γ ELISpot response” value (patient eleven, 6-10 yrs, cut-off 10 SFU) was 1 SFU and the “Significant response as percentage” value (patient five, max peptide 48 SFU) was “′′ (21-40% = ′′)”. For the same sequence, the “IFN-γ ELISpot response” value (patient four, 3-5yrs, cut-off 10 SFU) was 12 SFU, the “Significant response as percentage” value (patient four, max peptide 44 SFU) was “′′ (21-40% = ′′)” and the “IFN-γ ELISpot response” value (patient seven, 6-10 yrs, cut-off 10.5 SFU) was 6 SFU. For the same sequence, the “IFN-γ ELISpot response” value (patient ten, 3-5yrs, cut-off 10 SFU) was 3 SFU, the “IFN-γ ELISpot response” value (patient three, 6-10 yrs, cut-off 10.5 SFU) was 13 SFU and the “IFN-γ ELISpot response” value (patient twelve, 11-17 yrs, cut-off 10 SFU) was 9 SFU. The “IFN-γ ELISpot response” value (patient two, 3-5yrs, cut-off 10 SFU) was 9 SFU.

In the case of PFPLQPEQPVPEQPQ, the “Cross-reactive T cell response” value (subject A, 11-17yrs) is reported as 2 SFU, the “Cross-reactive T cell response” value (subject D, 11-17yrs) is reported as 9 SFU and the “Cross-reactive T cell response” value (subject E, 11-17yrs) is reported as 3 SFU. For the same sequence, the “Significant response as a percentage of maximal peptide SFU” value (“Significant response as a percentage” below) (subject F, 11-17yrs) was “′ (11-20% = ′)”, the “Cross-reactive T cell response” value (subject F, 11-17yrs) was 20 SFU and the “Cross-reactive T cell response” value (subject G, 11-17yrs) was 0 SFU. For the same sequence, the “Cross-reactive T cell response” value (subject H) was 3 SFU, the “Cross-reactive T cell response” value [1] was 1 SFU and the “Cross-reactive T cell response” value [2] was 3 SFU. For the same sequence, the “Cross-reactive T cell response” value [3] was 5 SFU, the “Cross-reactive T cell response” value (subject P, 11-17yrs) was 6 SFU and the “Cross-reactive T cell response” value (subject Q, 11-17yrs) was 5 SFU. The “Significant response as a percentage” value (subject T, 11-17yrs) was “′′ (21-40% = ′′)”, the “Cross-reactive T cell response” value (subject T, 11-17yrs) was 21 SFU and the “Significant response as a percentage” value (subject U, 11-17yrs) was “′ (11-20% = ′)”. For the same sequence, the “Cross-reactive T cell response” value (subject U, 11-17yrs) was 10 SFU, the “Cross-reactive T cell response” value [4] was 7 SFU and the “Cross-reactive T cell response” value [5] was 11 SFU. The “Cross-reactive T cell response” value [6] was 2 SFU, the “Cross-reactive T cell response” value [7] was 1 SFU and the “Cross-reactive T cell response” value (subject nine, 11-17yrs) was 1 SFU. For the same sequence, the “Cross-reactive T cell response” value [8] was 1 SFU, the “Cross-reactive T cell response” value [9] was 3 SFU and the “Significant response as a percentage” value (subject ten) was “+ (>70% = +)”. For the same sequence, the “Cross-reactive T cell response” value [10] was 11 SFU and the “Cross-reactive T cell response” value [11] was 5 SFU.

QPFPQPEQPTPIQ was tested, and the “Cross-reactive T cell response” value (subject A, 11-17yrs) was 6 SFU, the “Significant response as a percentage” value (subject D, 11-17yrs) was “′′ (21-40% = ′′)” and the “Cross-reactive T cell response” value (subject D, 11-17yrs) was 11 SFU. For the same sequence, the “Significant response as a percentage” value (subject E, 11-17yrs) was “′′ (21-40% = ′′)”, the “Cross-reactive T cell response” value (subject E, 11-17yrs) was 63 SFU and the “Cross-reactive T cell response” value (subject F, 11-17yrs) was 73 SFU. For the same sequence, the “Cross-reactive T cell response” value (subject G, 11-17yrs) was 1 SFU, the “Cross-reactive T cell response” value (subject H) was 1 SFU and the “Cross-reactive T cell response” value [1] was 0 SFU. The “Significant response as a percentage” value (subject J) was “′′′ (41-70% = ′′′)”, the “Cross-reactive T cell response” value [2] was 86 SFU and the “Cross-reactive T cell response” value [3] was 7 SFU. For the same sequence, the “Significant response as a percentage” value (subject P, 11-17yrs) was “′′ (21-40% = ′′)”, the “Cross-reactive T cell response” value (subject P, 11-17yrs) was 23 SFU and the “Significant response as a percentage” value (subject Q, 11-17yrs) was “′′′ (41-70% = ′′′)”. The “Cross-reactive T cell response” value (subject Q, 11-17yrs) was 39 SFU, the “Significant response as a percentage” value (subject T, 11-17yrs) was “′′′ (41-70% = ′′′)” and the “Cross-reactive T cell response” value (subject T, 11-17yrs) was 61 SFU. The “Significant response as a percentage” value (subject U, 11-17yrs) was “′′ (21-40% = ′′)”, the “Cross-reactive T cell response” value (subject U, 11-17yrs) was 21 SFU and the “Cross-reactive T cell response” value [4] was 5 SFU. The “Cross-reactive T cell response” value [5] was 0 SFU, the “Cross-reactive T cell response” value [6] was 4 SFU and the “Significant response as a percentage” value (subject five) was “+ (>70% = +)”. The “Cross-reactive T cell response” value [7] was 38 SFU, the “Cross-reactive T cell response” value (subject nine, 11-17yrs) was 2 SFU and the “Cross-reactive T cell response” value [8] was 6 SFU. The “Significant response as a percentage” value (subject six) was “+ (>70% = +)”, the “Cross-reactive T cell response” value [9] was 12 SFU and the “Cross-reactive T cell response” value [10] was 8 SFU. The “Significant response as a percentage” value (subject two) was “′′ (21-40% = ′′)” and the “Cross-reactive T cell response” value [11] was 20 SFU.

From US20170232083A1, “METHODS OF DIAGNOSIS AND TREATMENT OF CELIAC DISEASE IN CHILDREN” (priority 2014, published 2017)
